Several values for one entry are separate records, joined by “and”; a condition that tells them apart may be missing. Equal values may be shown once.
Settings: Liquid, Closed cell (Static) method

FC(C(F)(F)F)C(F)(F)F [1,1,1,2,3,3,3-heptafluoropropane]
Settings	vapor or sublimation pressure [kPa]
233.8 K	33.41
235.53 K	36.68
237.5 K	40.7
237.93 K	41.62
239.21 K	44.45
241.12 K	48.94
243.06 K	53.89
245.07 K	59.45
247.09 K	65.47
247.15 K	65.66
249.1 K	71.95
251.21 K	79.25
253.11 K	86.34
255.19 K	94.66
257.15 K	103.11
257.2 K	103.29
258.2 K	107.8
259.06 K	111.83
261.03 K	121.45
262.97 K	131.55
265.23 K	144.08
267.13 K	155.39
269.15 K	168.13
271.12 K	181.25
271.9 K	186.72
273.22 K	196.14
275.23 K	211.33
277.22 K	227.17
277.55 K	229.88
279.11 K	243.04
281.21 K	261.71
283.19 K	280.28
283.23 K	280.58
285.14 K	299.44
287.16 K	320.43
287.95 K	329.02
289.06 K	341.15
291.11 K	364.72
292.83 K	385.4
293.23 K	390.27
294.98 K	412.44
297.07 K	440.12
297.75 K	449.31
299.11 K	468.35
301.1 K	497.27
303.22 K	529.51
306.1 K	575.88
308.04 K	608.64
318.59 K	813.28
320.55 K	856.24
321.06 K	867.63
328.3 K	1043.7
331.45 K	1127.8
338.37 K	1331.1
341.94 K	1446
348.87 K	1690.7
352.27 K	1822.1
359.69 K	2136.3
360.92 K	2192.1
371.37 K	2720.8
371.43 K	2723.8

FC(F)(F)CC(F)(F)F [1,1,1,3,3,3-hexafluoropropane]
Settings	vapor or sublimation pressure
239.02 K	20.71 kPa
240.1 K	21.95 kPa
242.86 K	25.66 kPa
243.17 K	26.02 kPa
243.26 K	26.19 kPa
244.9 K	28.6 kPa
247.01 K	31.96 kPa
249.11 K	35.66 kPa
249.3 K	35.98 kPa
251.19 K	39.62 kPa
253.11 K	43.66 kPa
253.18 K	43.74 kPa
253.29 K	43.96 kPa
253.33 K	44.11 kPa
255.21 K	48.33 kPa
257.22 K	53.21 kPa
259.25 K	58.54 kPa
261.09 K	63.74 kPa
262.94 K	69.34 kPa
263.1 K	69.79 kPa
263.2 K	70.19 kPa
264.08 K	72.93 kPa
264.88 K	75.59 kPa
266.95 K	82.8 kPa
269.03 K	90.55 kPa
271.1 K	98.85 kPa
273.22 K	107.93 kPa
273.31 K	108.24 kPa
273.32 K	108.34 kPa
273.4 K	108.71 kPa
275.23 K	117.09 kPa
277.32 K	127.3 kPa
279.29 K	137.56 kPa
280.96 K	146.78 kPa
283.24 K	160.12 kPa
283.27 K	160.26 kPa
285.26 K	172.59 kPa
287.23 K	185.57 kPa
289.23 K	199.5 kPa
291.2 K	214 kPa
293.16 K	229.27 kPa
293.29 K	230.28 kPa
294.32 K	238.65 kPa
295.26 K	246.45 kPa
297.25 K	263.72 kPa
299.35 K	282.86 kPa
301.4 K	302.67 kPa
303.06 K	319.32 kPa
303.24 K	321.23 kPa
303.3 K	321.84 kPa
303.55 K	324.31 kPa
305.21 K	342.11 kPa
306.13 K	352.04 kPa
307.21 K	364.17 kPa
307.88 K	372.01 kPa
308.18 K	375.53 kPa
308.2 K	375.7 kPa
309.52 K	391.11 kPa
311.21 K	412.03 kPa
311.29 K	412.84 kPa
312.22 K	424.67 kPa
313.16 K	436.99 kPa
313.29 K	438.48 kPa
313.85 K	445.61 kPa
315.31 K	465.57 kPa
317.16 K	491.51 kPa
319.27 K	522.37 kPa
320.93 K	547.63 kPa
321.21 K	552.1 kPa
323.44 K	587.43 kPa
325.87 K	628.19 kPa and 628.25 kPa
327.21 K	651.86 kPa
328.24 K	669.95 kPa
329.19 K	687.47 kPa
330.27 K	707.58 kPa
330.43 K	710.54 kPa
330.87 K	718.92 kPa
332.2 K	744.56 kPa
332.59 K	752.25 kPa
335.42 K	809.53 kPa
337.41 K	851.82 kPa
337.88 K	862 kPa
339.87 K	906.21 kPa
341.92 K	953.67 kPa
343.98 K	1002.9 kPa
345.61 K	1043.5 kPa
346.25 K	1059.7 kPa
348.23 K	1111.2 kPa
350.37 K	1168.7 kPa
352.05 K	1215.7 kPa
352.45 K	1226.9 kPa
353.22 K	1249.3 kPa
355.64 K	1320.5 kPa
356.7 K	1352.6 kPa
359.21 K	1431.4 kPa
361.34 K	1500.8 kPa
363.46 K	1572.3 kPa
365.6 K	1647.1 kPa
367.45 K	1714.4 kPa
369.49 K	1790.5 kPa
371.35 K	1862.2 kPa
372.12 K	1892.8 kPa
373.44 K	1945.6 kPa
373.47 K	1946.8 kPa
374.62 K	1994.1 kPa
375.47 K	2029.4 kPa
377.6 K	2120.2 kPa
378.14 K	2144.1 kPa
379.74 K	2214.5 kPa
381.83 K	2310.2 kPa
383.87 K	2406.7 kPa
385.8 K	2500.8 kPa
387.8 K	2601.6 kPa
390.19 K	2726.9 kPa
392.05 K	2828.1 kPa
393.47 K	2907.6 kPa
393.73 K	2922.2 kPa
394.04 K	2940 kPa
396.05 K	3057 kPa
396.52 K	3085.8 kPa
397.97 K	3174.2 kPa

— the NIST ThermoML archive (doi:10.1016/j.fluid.2009.08.023)
